Source: PubChem BioAssay (NCI)
Values joined by “and” are separate entries in the source; they are usually repeats but may differ in a detail not shown here. Equal values may be shown once.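 Grown in 96-well plates, cells were treated for 48 hours with each compound at five concentrations. Insufficient inhibition: endpoint recorded as highest concentration tested. GI50: concentration for 50% inhibition of growth. TGI marks complete inhibition of growth.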

tested on: MDA-MB-468 breast; test: NCI tumour cell line growth inhibition, 48 h

Compound | GI50 | TGI [µM]
COCCn1cc(-c2nc(-c3cc4cccnc4[nH]3)cs2)c2cc(OC)ccc21 | 0.0317 µM | 0.192
NCCNCCNCCN | > 100 µM | > 100
CC(=C(c1ccc(OCCN2CCCCC2)cc1)c1ccc(OCCN2CCCCC2)cc1)c1ccc(Cl)cc1 | 0.402 µM | 0.809
O=C(Nc1nn2c(-c3cc(C(F)(F)F)cc(C(F)(F)F)c3)nnc2s1)C1CCCC1 | 0.356 µM | 4.35
O=C(Nc1cccc(C(F)(F)F)c1)Nc1cccc(C(F)(F)F)c1 | 0.675 µM | 3.17
c1ccc(-c2n(Cc3ccc4ccccc4n3)cc[n+]2Cc2ccc3ccccc3c2)cc1 | 0.222 µM | 1.09
CC(C)(C)[Si](C)(C)OC1[C@@H](O[Si](C)(C)C(C)(C)C)[C@@H](CNC(=O)NC(=O)C(F)(F)F)O[C@H]1n1cnc2c(NC(=O)Nc3ccccc3)ncnc21 (stereo partly drawn) | 2.18 µM | 9.16
Nc1nc2[nH]cc(CCc3ccc(C(=O)N[C@@H](CCC(=O)O)C(=O)O)cc3)c2c(=O)[nH]1 | 2.57 µM | > 100
C#CC(=O)N(c1ccc(OC)cc1OC)C(C(=O)NCC(=O)OCC)c1cccs1 (stereo not drawn) | 0.316 µM | 1.17
O=C1OCC2=C1C(c1cccc(Br)c1)c1cc3c(cc1N2CCO)OCCO3 (stereo not drawn) | 0.0258 µM | 0.181
CCCCCCCCCCSC(=N)N (tested in a mixture with another compound) | 2.1 µM | 4.86
COc1ccc(C(c2cc(OC)c(OC)c(OC)c2)n2cncn2)cc1O (stereo not drawn) | 0.371 µM | > 100
CC(=O)N[C@@H](Cc1ccc(OP(=O)(O)O)cc1)C(=O)N[C@H]1CCC(=O)N2CCC[C@@H](C(=O)Nc3cccc4ccccc34)N2C1=O | > 25 µM | > 25
CCNC(=O)C#Cc1ccc2c(C(=Nc3ccc(CN(C)C)cc3)c3ccccc3)c(O)[nH]c2c1 | 0.0621 µM | 0.914
NC(=S)N/N=C\c1nccc2c(C(F)(F)F)cccc12 | 0.199 µM | 0.612
c1ccc(Nc2ncc(-c3ccccc3)o2)cc1 | 8.41 µM | > 25
Cc1ccc(-c2nc(N3CCNCC3)c3oc(-c4ccc(C)cc4)nc3n2)cc1 | 3.29 µM | > 21.8
CC(C)[C@@H]1NC(=O)[C@]2(C)CSC(=N2)c2ccnc(c2)CNC(=O)C[C@@H](/C=C/CCS)OC1=O | 0.569 µM | –
CCN(CC)c1ccc(/C=N/NC(=O)c2ccc(S(N)(=O)=O)cc2)c(O)c1 | 0.258 µM | 1.14
CC1(C)[C@@H](NOCCCN)CC[C@]2(C)[C@H]3C(=O)C=C4[C@@H]5C[C@](C)(C(=O)O)CC[C@]5(C)CC[C@@]4(C)[C@]3(C)CC[C@@H]12 | 2.36 µM | 5.45
COc1ccc(Cn2c(Br)c3c(c2Br)-c2nc(N)sc2CC3)cc1 | 1.9 µM | 14
NC(=S)N/N=C1\c2cc(Cl)ccc2-c2c1cc(Cl)cc2[N+](=O)[O-] | 3.07 µM | 9.03
N=C(N)c1ccc(OCCCCCCCCCCOc2ccc(C(=N)N)cc2)cc1 | 0.414 µM | 1.8
C#Cc1cccc(Nc2nc3cc([N+](=O)[O-])ccc3nc2Nc2ccc(O)cc2)c1 | 1.43 µM | 3.26
Cc1ccc(S(=O)(=O)N2C3C=CC(C3)[C@@H]2C(Cl)(Cl)Cl)cc1 (stereo partly drawn) | 6.32 µM | 33.1
OC(c1cc(C(F)(F)F)nc2c(C(F)(F)F)cccc12)C1CCCCN1 (stereo not drawn) | 1.63 µM | 3.37

Compound | GI50 | TGI [µM]
Cc1cc(Nc2ccc(C)c(Cl)c2)n2nc(C(F)(F)F)nc2n1 | 18.7 µM | 61.6
COc1cc(/C=C2\CN(S(=O)(=O)c3ccc(C)cc3)C/C(=C\c3cc(CN4CCCC4)c(O)c(OC)c3)C2=O)cc(CN2CCCC2)c1O | 1.15 µM | 2.65
CNC(=O)c1cc(Oc2ccc3nc(NC(=O)c4ccc(CN5CCCN(C)CC5)c(C(F)(F)F)c4)sc3c2)ccn1 | 1.19 µM | 2.59
O=[N+]([O-])c1cc([N+](=O)[O-])c(C(F)(F)F)cc1NN=C(c1ccc(O)cc1)c1ccc(O)cc1 | 3.21 µM | 15.4
COc1ccccc1NC(=O)c1cc2cc(Br)ccc2cc1O | 2.79 µM | 7.87
COC(=O)[C@]12CC[C@@H](C)[C@H](C)[C@@H]1C1=CC[C@@H]3[C@@]4(C)C[C@@H](O)[C@H](O)[C@@](C)(CO)[C@@H]4[C@H](O)C[C@@]3(C)[C@]1(C)CC2 | 10.5 µM | 24.8
O=C1NC(=NCc2ccccc2)S/C1=C\c1ccc2ncccc2c1 | > 16.2 µM | > 25
CCCn1cnc2c(c1=N)C(c1ccc(F)cc1)c1sc3c(CC)cccc3c1O2 (stereo not drawn) | 0.35 µM | > 100
CN1CCN(c2ccc(Nc3ncc(Cl)c(NC[C@@H]4CCCO4)n3)cc2)CC1 | 2.18 µM | 6.64
COC(=O)/C=C/c1cc(OC(C)=O)c2c(c1)[C@@H](C(=O)OC)[C@H](c1ccc(OC(C)=O)c(OC(C)=O)c1)O2 | 0.38 µM | 13.7
COc1ccc(C2c3cc4c(cc3OC3(OC)COC(=O)C23)OCO4)c(OC)c1 (stereo not drawn) | 9.24 µM | > 100
C=CC(=O)Nc1cc(Nc2nccc(-c3cn(C)c4ccccc34)n2)c(OC)cc1N(C)CCN(C)C | 0.0271 µM and 0.0472 µM | 0.332
COc1c2ccccc2c(OC)c2[nH]c(=O)ccc12 | 4.77 µM | > 91.7
COc1cc(-c2nn(-c3cccc(NC(=O)c4ccccc4)c3)cc2-c2ccncc2)ccc1Cl | 0.349 µM | 3.42
C=C1C(=O)O[C@H]2[C@H]1CC/C(CNC(=O)c1cc3ccccc3[nH]1)=C\CC[C@@]1(C)O[C@@H]21 | 1.05 µM | 3.6
O=C1c2ccccc2C(=O)c2c(/C=C\N3CCCCC3)ccnc21 | 12.9 µM | 26.8
CCN1C(=O)N(CC)C2SC(N/N=C/C=C/c3ccccc3OC)=NC21 (stereo not drawn) | 0.326 µM | 48.9
CCOC(=O)n1cc(C2=C(c3ccc(OC)c(OC)c3)COC2=O)c2ccccc21 | 0.0357 µM | > 100
CC[C@@H](c1ccc(O)c(O)c1)[C@@H](CC)c1ccc(O)c(O)c1 | 2.09 µM | 5.51
COc1cc(-c2nc3sccn3c2-c2ccnc(NCCNS(=O)(=O)c3ccc(F)cc3)n2)ccc1F | 2.72 µM | > 100
COc1ccc2ncnc(Nc3ccc(OCc4ccccc4)cc3)c2c1 | 2.77 µM | 9.08
Cc1ccc(NC2=C3CCCCC3OC2=O)cc1 (stereo not drawn) | 21.9 µM | > 100
CCCCCCOc1ccc(/C=N/Nc2cc(C)nc3ccc(Cl)cc23)cc1 | 1.65 µM | 3.13
CN1CCN(C(=O)COc2ccc(C34CC5CC(CC(C5)C3)C4)cc2)CC1 | 9.12 µM | 23.1
C=C1C[C@H](O)[C@H](Br)C(C)(C)[C@@]12CCC(C)=C(Cl)C2 | 0.0369 µM | 0.397
CN(C)CC(O)c1ccc(/C=C/c2ccc(Cl)cc2)cc1 (stereo not drawn) | 1.75 µM | 3.83
